Drawing on patent US11098071B2, “GPR84 receptor antagonist and use thereof” (SHANGHAI INSTITUTE OF MATERIA MEDICA, CHINESE ACADEMY OF …, priority 2017, dated 2021), this text covers IC50 for 54 compounds.

The target of one experiment is T1, GPR84 (Homo sapiens, UniProt Q9NQS5).
T1 construct: expressed in transfected cells; host or cells: HEK293
T1 sequence (Q9NQS5 whole entry): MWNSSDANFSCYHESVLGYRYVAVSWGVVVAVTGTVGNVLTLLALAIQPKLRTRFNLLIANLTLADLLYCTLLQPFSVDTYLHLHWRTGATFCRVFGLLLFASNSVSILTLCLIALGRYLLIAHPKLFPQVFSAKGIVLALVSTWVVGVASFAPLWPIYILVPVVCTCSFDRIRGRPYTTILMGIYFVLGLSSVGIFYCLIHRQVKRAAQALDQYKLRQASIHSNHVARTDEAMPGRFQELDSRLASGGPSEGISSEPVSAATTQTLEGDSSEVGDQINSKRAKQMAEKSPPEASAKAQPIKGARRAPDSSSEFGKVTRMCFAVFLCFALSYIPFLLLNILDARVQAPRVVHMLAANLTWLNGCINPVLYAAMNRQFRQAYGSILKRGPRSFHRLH
The experiment in a line: GPR84 calcium flow model (antagonism of agonist 6-OAU, Fluo-4 fluorescence). The experiment is classed as cell-based.
Settings: not given
How it is done:
GPR84 antagonistic activity of the compounds of the invention was determined.
The human GPR84 cell line was obtained by transfecting a HEK293 cell line with a plasmid encoding GPR84 and Gα16 proteins. Fluorescent dye Fluo-4AM was purchased from Invitrogen.
Intracellular Ca^2+ ion is a very important second messenger of G protein-coupled receptor signaling pathway. […] Fluo-4 is a Ca^2+ ion-specific fluorescent probe that binds quantitatively to Ca^2+ ions and emits fluorescence. Therefore, the agonistic or antagonistic activity of the compound can be detected in a 96-well or 384-well flat-bottomed microplate using a fluorescence assay.
Detection of receptor inhibitory effect by GPR84 antagonist: After incubated with fluorescent dye Fluo-4, GPR84 cells were incubated with different concentrations of antagonistic compounds for a period of time to occupy the binding site of agonist to GPR84 (antagonistic binding site). A certain concentration of agonist (6-OAU) was added to compete with the antagonist compound for binding sites. […] The half-inhibitory concentration (IC50) of the compound was calculated by using GraphPad PRISM software.
The above ingredients were weighed and dissolved in ultrapure water. pH was adjusted to 7.4 by using hydrochloric acid or NaOH solution. The mixture was filtered and stored at 4° C. for one month.
The buffer was prepared on site.
The preparation of each milliliter of dye is as follows. 1 μL of 2 mM Fluo-4 AM was mixed with 10 μL of 3% Cremophor EL, then diluted with 1 mL of calcium buffer and mixed.
The cells were seeded at a density of 40,000 cells/well into a 96-well cell culture plate, and cultured for 24 hours or more to a cell density of 80 to 90% for experimental detection. The culture medium in the well to be tested was removed and 40 μL/well of freshly prepared dye was added and incubated in a 37-degree incubator for 40 min to 50 min.
The compound was formulated during cell incubation (this step can also be carried out in advance). The compound used as antagonist was diluted with calcium buffer freshly prepared before the experiment to 1.5 times of the final working concentration. The compound as agonist was diluted to 3 times of the final working concentration (if the compound is dissolved in DMSO, the final work concentration of DMSO shall not exceed 1%).
After the incubation step was completed, the dye was discarded, and the residue was washed with calcium buffer once and then replaced with 50 μL of calcium buffer containing different concentrations of antagonist and incubated for another 10 min.
With `O=P(O)(Oc1c2ccccc2cc2ccccc12)Oc1c2ccccc2cc2ccccc12` [CLH472a], the IC50 is 100 to 1000 nM.

`O=P(O)(Oc1cc2ccccc2c2ccccc12)Oc1cc2ccccc2c2ccccc12` [CLH472]: the IC50 was 1000 to 10000 nM.

The same experiment, now with this note: HEK293 cell line transfected with GPR84 and Gα16; agonist 6-OAU; Fluo-4; read-out: IC50 of the compound detected by the GPR84 calcium flow model.
Regarding `O=P(O)(OC1=CC2=C(CCCC2)Sc2ccccc21)OC1=CC2=C(CCCC2)Sc2ccccc21` [CLH544], the IC50 is 100 to 1000 nM.

Turning to `O=P(O)(OC1=Cc2c(F)cccc2Sc2ccccc21)OC1=Cc2c(F)cccc2Sc2ccccc21` [XYF573c], the IC50 lay in the range of 0.1 to 100 nM.

On to `Cc1ccc2c(c1)C(OP(=O)(O)OC1=Cc3ccccc3Sc3ccc(C)cc31)=Cc1ccccc1S2` [XYF564c], for which the IC50 was 0.1 to 100 nM.

As for `COc1cccc2c1Sc1ccccc1C=C2OP(=O)(O)OC1=Cc2cc(C(C)C(=O)O)ccc2Sc2ccccc21` (stereo not drawn) [CLH638], the IC50 was in the range of 0.1 to 100 nM.

As for `CC1c2ccccc2C=C(OP(=O)(O)OC2=Cc3ccccc3C(C)c3ccccc32)c2ccccc21` (stereo not drawn) [CLH528a], the IC50 lay within 100 to 1000 nM.

Consider `COc1cccc2c1Sc1c(OC)cccc1C(OP(=O)(O)OC1=Cc3cccc(OC)c3Sc3c(OC)cccc31)=C2` [XYF656a], for which the IC50 is 100 to 1000 nM.

On to `COc1cccc2c1Sc1cc(F)ccc1C=C2OP(=O)(O)OC1=Cc2ccc(F)cc2Sc2c(OC)cccc21` [XYF632], for which the IC50 is 0.1 to 100 nM.

As to `COc1cc2c(cc1OC)C(OP(=O)(O)OC1=Cc3ccccc3Sc3cc(OC)c(OC)cc31)=Cc1ccccc1S2` [CLH656], the IC50 lay within 0.1 to 100 nM.

For `CC(C(=O)O)c1ccc2c(c1)C=C(OP(=O)(O)OC1=Cc3cc(C(C)C(=O)O)ccc3Sc3ccccc31)c1ccccc1S2` (stereo not drawn) [CLH680], the IC50 was 1000 to 10000 nM.

Consider `O=P(O)(O/C1=C/c2ccccc2CCc2ccccc21)O/C1=C/c2ccccc2CCc2ccccc21` [XYF528], for which the IC50 lay within 100 to 1000 nM.

Regarding `COc1cccc2c1Sc1c(F)cccc1C=C2OP(=O)(O)OC1=Cc2cccc(F)c2Sc2c(OC)cccc21` [XYF632a], the IC50 is 0.1 to 100 nM.

As for `O=P(O)(OC1=Cc2cc(Cl)ccc2Sc2ccccc21)OC1=Cc2cc(Cl)ccc2Sc2ccccc21` [XYF604b], the half-inhibitory concentration (IC50) lay within 0.1 to 100 nM.

For `CCc1cccc2c1Sc1c(F)cccc1C=C2OP(=O)(O)OC1=Cc2cccc(F)c2Sc2c(CC)cccc21` [XYF628a], the IC50 lay within 0.1 to 100 nM.

Regarding `O=P(O)(O/C1=C/c2ccccc2/C=C\c2ccccc21)O/C1=C/c2ccccc2/C=C\c2ccccc21` [CLH524], the IC50 lay in the range of 100 to 1000 nM.

Turning to `COc1cccc2c1Sc1cccc(F)c1C=C2OP(=O)(O)OC1=Cc2c(F)cccc2Sc2c(OC)cccc21` [XYF632c], the IC50 was 0.1 to 100 nM.

Consider `O=P(O)(OC1=Cc2ccsc2Sc2sccc21)OC1=Cc2ccsc2Sc2sccc21` [XYF560], for which the IC50 was 100 to 1000 nM.

Consider `COc1ccc2c(c1)Sc1c(OC)cccc1C(OP(=O)(O)OC1=Cc3ccc(OC)cc3Sc3c(OC)cccc31)=C2` [XYF656], for which the IC50 was in the range of 0.1 to 100 nM.

`CCc1cccc2c1Sc1ccc(F)cc1C=C2OP(=O)(O)OC1=Cc2cc(F)ccc2Sc2c(CC)cccc21` [XYF628b]: the half-maximal inhibitory concentration (IC50) was 100 to 1000 nM.

`O=P(O)(OC1=Cc2cccc(F)c2Sc2ccccc21)OC1=Cc2cccc(F)c2Sc2ccccc21` [XYF573a]: the IC50 fell in the range of 100 to 1000 nM.

On to `O=P(O)(OC1=Cc2ccccc2Sc2c(F)cccc21)OC1=Cc2ccccc2Sc2c(F)cccc21` [CLH572a], for which the IC50 was in the range of 100 to 1000 nM.

As to `COc1cccc2c1Oc1ccccc1C=C2OP(=O)(O)OC1=Cc2ccccc2Oc2c(OC)cccc21` [XYF564-2a], the IC50 was 0.1 to 100 nM.

For `O=P(O)(OC1=Cc2ccccc2Sc2ccccc21)OC1=Cc2ccccc2Sc2ccccc21` [CLH514], the IC50 lay within 0.1 to 100 nM.

For the compound `O=P(O)(OC1=Cc2ccccc2Sc2c(O)cccc21)OC1=Cc2ccccc2Sc2c(O)cccc21` [CLH568], the IC50 lay in the range of 0.1 to 100 nM.

Consider `COc1cccc2c1Cc1ccccc1C=C2OP(=O)(O)OC1=Cc2ccccc2Cc2c(OC)cccc21` [CLH560], for which the IC50 was in the range of 0.1 to 100 nM.

For `O=P(O)(OC1=Cc2ccccc2Sc2sccc21)OC1=Cc2ccccc2Sc2sccc21` [CLH548], the IC50 lay within 0.1 to 100 nM.

As to `O=P(O)(OC1=Cc2ccccc2[S+]([O-])c2ccccc21)OC1=Cc2ccccc2S(=O)(=O)c2ccccc21` (stereo not drawn) [CLH584], the IC50 lay in the range of 1000 to 10000 nM.

Consider `CCc1cccc2c1Sc1cc(F)ccc1C=C2OP(=O)(O)OC1=Cc2ccc(F)cc2Sc2c(CC)cccc21` [XYF628], for which the IC50 lay in the range of 1000 to 10000 nM.

`O=P(O)(OC1=Cc2c(F)cccc2Oc2ccccc21)OC1=Cc2c(F)cccc2Oc2ccccc21` [XYF540]: the half-inhibitory concentration (IC50) was 0.1 to 100 nM.

With `COc1ccc2c(c1)Sc1ccccc1C=C2OP(=O)(O)OC1=Cc2ccccc2Sc2cc(OC)ccc21` [CLH596b], the IC50 lay in the range of 0.1 to 100 nM.

Consider `CC(C)Oc1cccc2c1Sc1ccccc1C=C2OP(=O)(O)OC1=Cc2ccccc2Sc2c(OC(C)C)cccc21` [CLH652], for which the IC50 is 100 to 1000 nM.

Consider `CCc1cccc2c1Sc1ccccc1C=C2OP(=O)(O)OC1=Cc2ccccc2Sc2c(CC)cccc21` [XYF628c], for which the IC50 lay in the range of 0.1 to 100 nM.

Consider `C=C1c2ccccc2C=C(OP(=O)(O)OC2=Cc3ccccc3C(=C)c3ccccc32)c2ccccc21` [CLH524a], for which the IC50 was in the range of 100 to 1000 nM.

Turning to `O=P(O)(OC1=Cc2ccc(F)cc2Sc2ccccc21)OC1=Cc2ccc(F)cc2Sc2ccccc21` [XYF573], the IC50 fell in the range of 100 to 1000 nM.

Take `O=P(O)(OC1=Cc2ccccc2Sc2ccc(F)cc21)OC1=Cc2ccccc2Sc2ccc(F)cc21` [CLH572c]: the IC50 lay within 100 to 1000 nM.

As for `O=P(O)(OC1=Cc2ccccc2Oc2ccccc21)OC1=Cc2ccccc2Oc2ccccc21` [CLH482], the IC50 lay within 100 to 1000 nM.

In the case of `O=P(O)(OC1=Cc2ccccc2C2(OCCO2)c2ccccc21)OC1=Cc2ccccc2C2(OCCO2)c2ccccc21` [CLH616a], the IC50 was 100 to 1000 nM.

`CCOC(=O)C(C)c1ccc2c(c1)C=C(OP(=O)(O)OC1=Cc3cc(C(C)C(=O)OCC)ccc3Sc3ccccc31)c1ccccc1S2` (stereo not drawn) [CLH736]: the 50% inhibitory concentration (IC50) fell in the range of 1000 to 10000 nM.

Regarding `CCOc1cccc2c1Sc1ccccc1C=C2OP(=O)(O)OC1=Cc2ccccc2Sc2c(OCC)cccc21` [CLH624], the IC50 was in the range of 0.1 to 100 nM.

Take `O=P(O)(CC1=Cc2ccccc2Sc2ccccc21)CC1=Cc2ccccc2Sc2ccccc21` [XYF532]: the IC50 lay in the range of 1000 to 10000 nM.

For `COc1cccc2c1Sc1ccc(F)cc1C=C2OP(=O)(O)OC1=Cc2cc(F)ccc2Sc2c(OC)cccc21` [XYF632b], the IC50 was in the range of 0.1 to 100 nM.

`CCOC(=O)C(C)c1ccc2c(c1)C=C(OP(=O)(O)OC1=Cc3ccccc3Sc3c(OC)cccc31)c1ccccc1S2` (stereo not drawn) [CLH666]: the IC50 was in the range of 0.1 to 100 nM.

Consider `O=P(O)(OC1=Cc2ccccc2S(=O)(=O)c2ccccc21)OC1=Cc2ccccc2S(=O)(=O)c2ccccc21` [CLH600], for which the IC50 was in the range of 1000 to 10000 nM.

Regarding `CN1c2ccccc2C=C(OP(=O)(O)OC2=Cc3ccccc3N(C)c3ccccc32)c2ccccc21` [CLH508], the IC50 lay within 100 to 1000 nM.

Regarding `O=P(O)(OC1=Cc2ccccc2SC2=C1CCCC2)OC1=Cc2ccccc2SC2=C1CCCC2` [CLH544a], the IC50 lay in the range of 100 to 1000 nM.

In the case of `COc1ccc2c(c1)C(OP(=O)(O)OC1=Cc3ccccc3Sc3ccc(OC)cc31)=Cc1ccccc1S2` [CLH596c], the IC50 was in the range of 0.1 to 100 nM.

In the case of `O=P(O)(OC1=Cc2ccccc2Sc2cc(F)ccc21)OC1=Cc2ccccc2Sc2cc(F)ccc21` [CLH572b], the IC50 is 100 to 1000 nM.

For `O=P(O)(OC1=Cc2cc(F)ccc2Sc2ccccc21)OC1=Cc2cc(F)ccc2Sc2ccccc21` [XYF573b], the IC50 lay in the range of 0.1 to 100 nM.

For `COc1cccc2c1Sc1ccccc1C=C2OP(=O)(O)OC1=Cc2ccccc2Sc2c(O)cccc21` [CLH582], the IC50 was 0.1 to 100 nM.

Take `O=P(O)(OC1=Cc2cccc(Cl)c2Sc2ccccc21)OC1=Cc2cccc(Cl)c2Sc2ccccc21` [XYF604]: the IC50 is 100 to 1000 nM.

Regarding `COc1ccc(OC)c2c1Sc1ccccc1C=C2OP(=O)(O)OC1=Cc2ccccc2Sc2c(OC)ccc(OC)c21` [CLH656a], the IC50 lay in the range of 100 to 1000 nM.

As for `COc1cccc2c1SC1=C(C=C2OP(=O)(O)OC2=CC3=C(SCC3)Sc3c(OC)cccc32)CCS1` [XYF608], the IC50 lay in the range of 0.1 to 100 nM.

Consider `O=P(O)(OC1=Cc2c(F)cccc2Cc2ccccc21)OC1=Cc2c(F)cccc2Cc2ccccc21` [XYF536c], for which the IC50 fell in the range of 0.1 to 100 nM.

As a reminder, the IC50 is the point on the concentration scale where inhibition reaches its midpoint.
